Measurements published in PubChem BioAssay (NCI).
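Cultured in 96-well plates, cells were exposed to test compound for 48 hours across five concentrations. GI50: concentration for 50% inhibition of growth. TGI marks complete inhibition of growth.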

Experiments:
Assay in all cases: inhibition of tumour cell growth, NCI panel, 48 h
[1] = test system: NCI-H460 lung
[2] = test system: NCI-H23 lung
[3] = test system: M14 melanoma
[4] = test system: HOP-62 NSCLC
[5] = test system: SF-539 CNS
[6] = test system: EKVX NSCLC
[7] = test system: OVCAR-4 ovarian
[8] = test system: OVCAR-5 ovarian
[9] = test system: CAKI-1 renal
[10] = test system: HOP-92 NSCLC
[11] = test system: SW-620 colon
[12] = test system: HL-60(TB) leukemia
[13] = test system: KM12 colon
[14] = test system: IGROV1 ovarian
[15] = test system: ACHN renal
[16] = test system: HCC-2998 colon
[17] = test system: HS 578T breast
[18] = test system: UACC-62 melanoma
[19] = test system: OVCAR-3 ovarian
[20] = test system: SNB-75 CNS
[21] = test system: SK-OV-3 ovarian
[22] = test system: CCRF-CEM leukemia
[23] = test system: RPMI-8226 leukemia
[24] = test system: NCI-H226 lung
[25] = test system: NCI/ADR-RES ovarian
[26] = test system: U251 CNS
[27] = test system: RXF 393 renal
[28] = test system: UACC-257 melanoma
[29] = test system: DU-145 prostate
[30] = test system: SF-268 CNS
[31] = test system: UO-31 renal
[32] = test system: MALME-3M melanoma
[33] = test system: SF-295 CNS
[34] = test system: MDA-MB-231 breast
[35] = test system: TK-10 renal
[36] = test system: PC-3 prostate
[37] = test system: MDA-MB-435
[38] = test system: 786-0 renal
[39] = test system: A498 renal
[40] = test system: HCT-116 colon
[41] = test system: BT-549 breast
[42] = test system: MOLT-4 leukemia
[43] = test system: HCT-15 colon
[44] = test system: K-562 leukemia
[45] = test system: SK-MEL-28 melanoma
[46] = test system: SK-MEL-5 melanoma
[47] = test system: A549 NSCLC
[48] = test system: OVCAR-8 ovarian
[49] = test system: COLO 205 colon
[50] = test system: SK-MEL-2 melanoma
[51] = test system: NCI-H522 lung
[52] = test system: LOX IMVI melanoma
[53] = test system: SR leukemia
[54] = test system: MCF7 breast
[55] = test system: SN12C renal
[56] = test system: T-47D breast
[57] = test system: SNB-19 CNS
[58] = test system: HT29 colon

Cc1c(NC(=O)c2cc(C(N)=O)nc3cc(F)ccc23)c(C(F)(F)F)nn1Cc1ccc(C#N)cc1
GI50 [1]: 4760 nM
TGI [1]: > 100000 nM
GI50 [2]: 22.2 µM
TGI [2]: > 100 µM
GI50 [3]: 58.8 µM
TGI [3]: > 100 µM
GI50 [4]: 13.6 µM
TGI [4]: > 87.3 µM
GI50 [5]: 14.3 µM
TGI [5]: 49.6 µM
GI50 [6]: 21.9 µM
TGI [6]: > 100 µM
GI50 [7]: 4.91 µM
TGI [7]: > 76.9 µM
GI50 [8]: 8.61 µM
TGI [8]: 97.5 µM
GI50 [9]: 5.66 µM
TGI [9]: 35.1 µM
GI50 [10]: 1280 nM
TGI [10]: 18.1 µM
GI50 [11]: 23.8 µM
TGI [11]: > 100 µM
GI50 [12]: 29.8 µM
TGI [12]: > 100 µM
GI50 [13]: 512 nM
TGI [13]: > 37.9 µM
GI50 [14]: 2020 nM
TGI [14]: > 80.7 µM
GI50 [15]: 12.4 µM
TGI [15]: 71.1 µM
GI50 [16]: 5.16 µM
TGI [16]: > 100 µM
GI50 [17]: 59.2 nM
TGI [17]: 8.46 µM
GI50 [18]: 6.35 µM
TGI [18]: > 100 µM
GI50 [19]: 2400 nM
TGI [19]: > 64.5 µM
GI50 [20]: 5.8 µM
TGI [20]: 45.2 µM
GI50 [21]: 2760 nM
TGI [21]: 21.4 µM
GI50 [22]: 167 nM
TGI [22]: > 100 µM
GI50 [23]: 10.1 nM
TGI [23]: 3.67 µM
GI50 [24]: 13.4 µM
TGI [24]: > 100 µM
GI50 [25]: 12.3 µM
TGI [25]: > 100 µM
GI50 [26]: 1670 nM
TGI [26]: 18.9 µM
GI50 [27]: 5.56 µM
TGI [27]: 28.8 µM
GI50 [28]: > 95300 nM
TGI [28]: > 100 µM
GI50 [29]: 1100 nM
TGI [29]: > 56.4 µM
GI50 [30]: 14.3 µM
TGI [30]: > 69.3 µM
GI50 [31]: 1780 nM
TGI [31]: > 100 µM
GI50 [32]: 14.4 µM
TGI [32]: 74.5 µM
GI50 [33]: 10.4 µM
TGI [33]: 54.9 µM
GI50 [34]: 17.8 µM
TGI [34]: > 100 µM
GI50 [35]: 3.2 µM
TGI [35]: > 53.6 µM
GI50 [36]: 451 nM
TGI [36]: 24.4 µM
GI50 [37]: 56.9 µM
TGI [37]: > 100 µM
GI50 [38]: 3.77 µM
TGI [38]: > 100 µM
GI50 [39]: 15.1 µM
TGI [39]: 62.4 µM
GI50 [40]: 2840 nM
TGI [40]: > 100 µM
GI50 [41]: 1780 nM
TGI [41]: 25.3 µM
GI50 [42]: 1700 nM
TGI [42]: > 100 µM
GI50 [43]: 23 µM
TGI [43]: > 100 µM
GI50 [44]: 13.1 µM
TGI [44]: > 100 µM
GI50 [45]: 37.4 µM
TGI [45]: > 100 µM
GI50 [46]: 16.3 µM
TGI [46]: > 100000 nM
GI50 [47]: 16.6 µM
TGI [47]: > 100000 nM
GI50 [48]: 7.02 µM
TGI [48]: > 100 µM
GI50 [49]: 504 nM
TGI [49]: 3.23 µM
GI50 [50]: 19.2 µM
TGI [50]: > 83.7 µM
GI50 [51]: 18.3 µM
TGI [51]: > 64.4 µM
GI50 [52]: 8.13 µM
TGI [52]: > 100 µM
GI50 [53]: 48.8 µM
TGI [53]: > 100 µM
GI50 [54]: 276 nM
TGI [54]: 17.7 µM
GI50 [55]: 1590 nM
TGI [55]: > 72 µM
GI50 [56]: 295 nM
TGI [56]: 31.3 µM
GI50 [57]: 3.44 µM
TGI [57]: 30 µM
GI50 [58]: 219 nM
TGI [58]: 1.91 µM

CC1=C(SCCC(=O)OCC(=O)NCCC[Te]c2ccccc2)C(=O)c2ccccc2C1=O
GI50 [1]: 790 nM
TGI [1]: 3000 nM
GI50 [2]: 1.84 µM
TGI [2]: 5.25 µM
GI50 [3]: 2.11 µM
TGI [3]: 5.27 µM
GI50 [4]: 2.04 µM
TGI [4]: 5.19 µM
GI50 [5]: 2.29 µM
TGI [5]: 6.71 µM
GI50 [6]: 0.443 µM
TGI [6]: 5.11 µM
GI50 [7]: 2.21 µM
TGI [7]: 7.34 µM
GI50 [8]: 2.86 µM
TGI [8]: 7.68 µM
GI50 [9]: 1.86 µM
TGI [9]: 6.87 µM
GI50 [10]: 1800 nM
TGI [10]: 5.01 µM
GI50 [11]: 3.79 µM
TGI [11]: 15.6 µM
GI50 [12]: 2.58 µM
TGI [12]: 7.07 µM
GI50 [13]: 2960 nM
TGI [13]: 10.1 µM
GI50 [14]: 1920 nM
TGI [14]: 5.58 µM
GI50 [15]: 2.76 µM
TGI [15]: 10.2 µM
GI50 [16]: 1.78 µM
TGI [16]: 4.58 µM
GI50 [17]: 2970 nM
TGI [17]: > 33.7 µM
GI50 [18]: 1.94 µM
TGI [18]: 4.83 µM
GI50 [19]: 2230 nM
TGI [19]: 4.81 µM
GI50 [20]: 1.37 µM
TGI [20]: 5.42 µM
GI50 [21]: 1900 nM
TGI [21]: 4.62 µM
GI50 [22]: 2100 nM
TGI [22]: 19.6 µM
GI50 [23]: 2640 nM
TGI [23]: 9.84 µM
GI50 [24]: 1.64 µM
TGI [24]: 3.64 µM
GI50 [25]: 2.22 µM
TGI [25]: 7.32 µM
GI50 [26]: 2390 nM
TGI [26]: 8.06 µM
GI50 [27]: 1.78 µM
TGI [27]: 5.16 µM
GI50 [28]: 2880 nM
TGI [28]: 8.23 µM
GI50 [29]: 2950 nM
TGI [29]: 8.05 µM
GI50 [30]: 2.61 µM
TGI [30]: 9.42 µM
GI50 [31]: 1740 nM
TGI [31]: 8.66 µM
GI50 [32]: 2.22 µM
TGI [32]: 5.56 µM
GI50 [33]: 1.11 µM
TGI [33]: 4.24 µM
GI50 [34]: 1.8 µM
TGI [34]: 4.34 µM
GI50 [35]: 3.87 µM
TGI [35]: 12.4 µM
GI50 [36]: 1960 nM
TGI [36]: 9.76 µM
GI50 [37]: 3.07 µM
TGI [37]: 10.4 µM
GI50 [38]: 2.64 µM
TGI [38]: 7.33 µM
GI50 [39]: 1.9 µM
TGI [39]: 6.16 µM
GI50 [40]: 1630 nM
TGI [40]: 4.12 µM
GI50 [41]: 1700 nM
TGI [41]: 3.95 µM
GI50 [42]: 3120 nM
TGI [42]: 12.2 µM
GI50 [43]: 2.73 µM
TGI [43]: 11.4 µM
GI50 [44]: 3.3 µM
TGI [44]: 19.4 µM
GI50 [45]: 2.41 µM
TGI [45]: 5.78 µM
GI50 [46]: 1.52 µM
TGI [46]: 2880 nM
GI50 [47]: 0.793 µM
TGI [47]: 2950 nM
GI50 [48]: 2.74 µM
TGI [48]: 11 µM
GI50 [49]: 1970 nM
TGI [49]: 3.88 µM
GI50 [50]: 2.75 µM
TGI [50]: 7.24 µM
GI50 [51]: 2.71 µM
TGI [51]: 10.8 µM
GI50 [52]: 1.72 µM
TGI [52]: 4.07 µM
GI50 [53]: 1.97 µM
TGI [53]: 17.4 µM
GI50 [54]: 2500 nM
TGI [54]: 10.7 µM
GI50 [55]: 2210 nM
TGI [55]: 7.99 µM
GI50 [56]: 2200 nM
TGI [56]: 6.21 µM
GI50 [57]: 2.78 µM
TGI [57]: 10.4 µM
GI50 [58]: 3290 nM
TGI [58]: 11.1 µM
